From patent US11089783B2, “2-(het)aryl-substituted fused heterocycle derivatives as pesticides” (Bayer Aktiengesellschaft, priority 2017, dated 2021)

Key:
Format in all cases: in vivo
[1] = test system: Myzus persicae; assay: Myzus persicae spray test (MYZUPE), Chinese cabbage leaf discs
How it was run: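 Leaf discs of Chinese cabbage carrying all stages of green peach aphid were sprayed with compound formulated in solvent and diluted with water containing emulsifier at 1000 ppm. Percent efficacy (100% = all aphids dead) was scored after 5 days or after the desired time.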

[2] = test system: Musca domestica; assay: Musca domestica test; details: 100 ppm, adult houseflies, after 2 days
Procedure: Solvent: dimethyl sulfoxide To produce a suitable active ingredient formulation, 10 mg of active ingredient are mixed with 0.5 ml of dimethyl sulfoxide, and the concentrate is diluted with water to the desired concentration. Vessels containing a sponge treated with sugar solution and the active ingredient formulation of the desired concentration are populated with 10 adult houseflies (Musca domestica). After 2 days, the kill in % is determined. 100% means that all of the flies have been killed; 0% means that none of the flies have been killed.

[3] = test system: Aphis gossypii; assay: Aphis gossypii spray test (APHIGO), cotton plants; details: 6 dat
How it was run: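 Cotton plants (Gossypium hirsutum) heavily infested with cotton aphids were sprayed with the active ingredient formulated in emulsifier-containing water (1000 ppm emulsifier), with ammonium salt or penetrant added at 1000 ppm where required. After the set time, percent kill was determined, where 100% means all aphids dead.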

[4] = test system: Meloidogyne incognita; assay: Meloidogyne incognita test (MELGIN); details: 20 ppm, 14 days (14 dat)
How it was run: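 Sand with lettuce seeds, M. incognita egg/larvae suspension and aqueous dilution of compound concentrate. Nematicidal efficacy scored from gall (root-knot) formation after 14 days or the desired time, as % relative to untreated control (100% = no galls; 0% = as control).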

[5] = test system: Lucilia cuprina; assay: Lucilia cuprina test; details: 48 h, L1 larvae, after 2 days, read-out: efficacy (kill)
How it was run: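 About 20 L1 larvae of Lucilia cuprina placed on minced horsemeat containing compound (DMSO stock diluted in water to test concentration). Kill (%) scored after 2 days; 100% = all larvae dead, 0% = none dead.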

[6] = test system: Nilaparvata lugens; assay: Nilaparvata lugens spray test (NILALU); details: 4 g/ha, 4 dat
Procedure: (§1) [table] To produce an appropriate active ingredient formulation, 1 part by weight of active ingredient is dissolved with the specified parts by weight of solvent and made up with water containing an emulsifier concentration of 1000 ppm until the desired concentration is attained. To produce further test concentrations, the mixture is diluted with emulsifier-containing water. If addition of ammonium salts or/and penetrants is required, these are each added to the preparation solution in a concentration of 1000 ppm. Rice plants (Oryza sativa) are sprayed with an active ingredient formulation of the desired concentration and then populated with larvae of the brown planthopper (Nilaparvata lugens). After the desired time, the efficacy in % is determined. 100% means that all planthoppers have been killed; 0% means that no planthoppers have been killed.

[7] = test system: Myzus persicae; assay: Myzus persicae oral test; details: 120 h, after 5 days, read-out: efficacy
How it was run: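 Compound solution in IPL41 insect medium with sugar was sealed under parafilm, through which a mixed population of green peach aphids fed. Mortality was scored after 5 days as % efficacy, with 100% meaning all aphids killed.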

[8] = test system: Phaedon cochleariae; assay: Phaedon cochleariae spray test (PHAECO), Chinese cabbage leaf discs
How it was run: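 Chinese cabbage (Brassica pekinensis) leaf discs sprayed with compound in water with 1000 ppm emulsifier, then after drying infested with Phaedon cochleariae larvae. Efficacy (% larvae killed) scored after 7 days or the chosen interval.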

[9] = test system: Tetranychus urticae; assay: Tetranychus urticae spray test, OP-resistant (TETRUR); details: Tetranychus urticae, 144 h, TETRUR, 6 dat, read-out: % efficacy
Procedure: [table] To produce a suitable active ingredient formulation, 1 part by weight of active ingredient is dissolved with the specified parts by weight of solvent and made up to the desired concentration with water containing an emulsifier concentration of 1000 ppm. To produce further test concentrations, the formulation is diluted with emulsifier-containing water. Discs of bean leaves (Phaseolus vulgaris) infested with all stages of the greenhouse red spider mite (Tetranychus urticae) are sprayed with an active ingredient formulation of the desired concentration. After 6 days, the efficacy in % is determined. 100% means that all the spider mites have been killed; 0% means that no spider mites have been killed.

[10] = test system: Meloidogyne incognita; assay: Meloidogyne incognita drench test (MELGIN D); details: soil, 504 h, 21 dat, read-out: % efficacy
Procedure: [table] To produce an appropriate active ingredient formulation, 1 part by weight of active ingredient is mixed with the specified amounts of solvent and emulsifier and the concentrate is diluted to the desired concentration with water, it being necessary to take into account the volume of soil into which drenching is effected. It should be ensured that a concentration of 20 ppm of emulsifier in the soil is not exceeded. For production of further test concentrations, the mixture is diluted with water. Pots filled with soil (loamy sand) are drenched with the active ingredient solution. An egg/larvae suspension of the southern root-knot nematode (Meloidogyne incognita) is added, and lettuce seeds are scattered over the soil surface and covered with quartz sand. The lettuce seeds germinate and the seedlings develop. The root-knots develop on the roots. After the desired time, the nematicidal effect is determined with reference to the root-knot formation in %. 100% means that no root-knots were found; 0% means that the number of root-knots on the treated plants corresponds to that on the untreated control.

[11] = test system: Phaedon cochleariae; assay: Phaedon cochleariae spray test (PHAECO S), cabbage leaves; details: Phaedon cochleariae, 168 h, 7 dat, read-out: % efficacy
Procedure: as §1, with “Cabbage leaves (Brassica oleracea)” for “Rice plants (Oryza sativa)”, “and” for “and then”, “mustard beetle (Phaedon cochleariae).” for “brown planthopper (Nilaparvata lugens).”, “kill” for “efficacy”, “beetle larvae” for “planthoppers”

[12] = test system: Diabrotica balteata; assay: Diabrotica balteata drench test (DIABBA); details: soil, 192 h, 8 dat, read-out: % efficacy
Procedure: [table] To produce an appropriate active ingredient formulation, 1 part by weight of active ingredient is mixed with the specified amounts of solvent and emulsifier and the concentrate is diluted to the desired concentration with water, it being necessary to take into account the volume of soil into which drenching is effected. It should be ensured that a concentration of 40 ppm of emulsifier in the soil is not exceeded. For production of further test concentrations, the mixture is diluted with water. 5 maize kernels in each case are sown into soil-filled pots (Zea mays) and, the next day, drenched with the active ingredient formulation of the desired concentration. After one day, about 25 L2 larvae of the banded cucumber beetle (Diabrotica balteata) were added. After 8 days, the efficacy in % is determined. 100% means that all 5 plants have germinated and grown; 0% means that no plant has emerged.

[13] = test system: Nezara viridula; assay: Nezara viridula spray test (NEZARA / NEZAVI); details: Nezara viridula, 96 h, 4 g/ha, 4 dat, read-out: % efficacy
How it was run: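 Barley plants infested with Nezara viridula larvae were sprayed with active ingredient in solvent/emulsifier water (1000 ppm emulsifier; ammonium salt or penetrant at 1000 ppm if added). Efficacy scored as % mortality after the set time (100% = all bugs killed).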

Compound	% efficacy ([1]; MYZUPE, 4 g/ha, 5 dat) [%]	pest or weed control at 100 g/ha ([1]; Myzus persicae, foliar, 120 h, 100 g/ha, 5 days (5 dat), read-out: efficacy) [%]	efficacy (kill) [2] [%]	% efficacy ([3]; 0.8 ppm) [%]	% efficacy ([3]; 4 ppm) [%]	efficacy (nematicidal, gall formation) [4] [%]	pest or weed control at 100 ppm [5] [%]	% efficacy [6] [%]	pest or weed control at 0.8 ppm [7] [%]	efficacy ([8]; 100 g/ha, 7 days (7 dat)) [%]	% efficacy ([8]; PHAECO, 20 g/ha, 7 dat) [%]	Emax at 4 ppm ([3]; Aphis gossypii, 144 h, 4 ppm, read-out: % efficacy) [%]	Emax at 20 g/ha ([9]; 20 g/ha) [%]	Emax at 100 g/ha ([9]; 100 g/ha) [%]	Emax at 1 ppm ([10]; 1 ppm) [%]	Emax at 2 ppm ([10]; 2 ppm) [%]	Emax at 4 ppm ([11]; 4 ppm) [%]	Emax at 20 ppm ([11]; 20 ppm) [%]	Emax at 20 ppm [12] [%]	Emax at 4 g/ha [13] [%]
CCS(=O)(=O)c1ccc(C(=O)NC)nc1-c1nc2cc(C(F)(F)C(F)(F)F)nnc2n1C [Example I-01]	90	90	100	70	100	90	100	100	100	100	67									
CCS(=O)(=O)c1ccc(NC(=O)NC)nc1-c1nc2cc(C(F)(F)F)nnc2n1C [reference compound]												25	0	0	0	50	0	0	0	0
